According to PubChem BioAssay (NCI):
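48-hour exposure; five concentrations; linearly interpolated endpoints. Here, GI50 denotes the concentration required for 50% inhibition of growth. The concentration for full growth arrest is given as TGI.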

Key:
Experiment in all cases: DTP human tumour cell line panel, 48 h
786-0 renal = tested on: 786-0 renal
SK-MEL-2 melanoma = tested on: SK-MEL-2 melanoma
U251 CNS = tested on: U251 CNS
SF-295 CNS = tested on: SF-295 CNS
NCI-H23 lung = tested on: NCI-H23 lung
EKVX NSCLC = tested on: EKVX NSCLC
OVCAR-4 ovarian = tested on: OVCAR-4 ovarian
SK-MEL-28 melanoma = tested on: SK-MEL-28 melanoma
RPMI-8226 leukemia = tested on: RPMI-8226 leukemia
HS 578T breast = tested on: HS 578T breast

Structure (SMILES) | TGI (786-0 renal) [µM] | TGI (SK-MEL-2 melanoma) [µM] | TGI (U251 CNS) [µM] | TGI (SF-295 CNS) [µM] | TGI (NCI-H23 lung) [µM] | TGI (EKVX NSCLC) [µM] | TGI (OVCAR-4 ovarian) [µM] | TGI (SK-MEL-28 melanoma) [µM] | TGI (RPMI-8226 leukemia) [µM] | GI50 (786-0 renal) [µM] | GI50 (HS 578T breast) [µM] | TGI (HS 578T breast) [µM] | GI50 (SK-MEL-2 melanoma) [µM] | GI50 (U251 CNS) [µM] | GI50 (SF-295 CNS) [µM] | GI50 (NCI-H23 lung) [µM] | GI50 (OVCAR-4 ovarian) [µM] | GI50 (SK-MEL-28 melanoma) [µM] | GI50 (RPMI-8226 leukemia) [µM] | GI50 (EKVX NSCLC) [µM]
CCCCNC(=O)C1C(=O)N(CCCC)C(=O)/C1=N\N (stereo not given) | > 100 | > 100 | > 100 | > 100 | > 100 | > 100 | > 100 | > 100 | > 100 | – | – | – | – | – | – | – | – | – | – | –
Cc1ccc2c(c1)c(Sc1ccc(C(=O)NO)cc1)c1n2CN(C)CC1 | 8.53 | 4.21 | 3.42 | 3.69 | 3.85 | – | 9.04 | 3.63 | 9.86 | 2.82 | 2.25 | 13 | 1.88 | 1.61 | 1.83 | 1.8 | 1.51 | 1.58 | 1.1 | –
O=c1c2ccccc2nc(/C=C(\O)c2ccncc2)n1-c1ccc(Cl)cc1 | > 100 | > 100 | > 100 | > 100 | > 100 | > 100 | > 100 | > 100 | > 100 | – | – | – | – | – | – | – | – | – | – | –
O=C(O)COc1ccc(C(=O)/C(SS/C(C(=O)c2ccc(OCC(=O)O)c(Cl)c2Cl)=C2\C=C(c3ccc(Cl)cc3)SS2)=C2/C=C(c3ccc(Cl)cc3)SS2)c(Cl)c1Cl | 26.3 | 33.7 | 15.4 | 82.5 | 40.8 | > 100 | 16.7 | 56.7 | 43.3 | – | – | – | – | – | – | – | – | – | – | –
O=C(c1ccccc1)C(c1ccccc1)C1(O)C(=O)Nc2ccc([N+](=O)[O-])cc21 (stereo not given) | > 100 | > 100 | > 100 | – | > 100 | > 100 | > 100 | > 100 | > 100 | – | – | – | – | – | – | – | – | – | – | –
O=C1[C@@H]2C(c3ccccc3[N+](=O)[O-])=[N+](c3ccccc3)O[C@@H]2C(=O)N1c1ccc(Cc2ccc(N3C(=O)[C@H]4C(c5ccccc5[N+](=O)[O-])=[N+](c5ccccc5)O[C@H]4C3=O)cc2)cc1 | > 100 | > 100 | > 100 | > 100 | > 100 | > 100 | > 100 | > 100 | > 100 | – | – | – | – | – | – | – | – | – | – | –
C[C@]12CC[C@@H]3c4cc(O)c(O)cc4CC[C@H]3[C@@H]1CC[C@@H]2O | > 100 | 22.2 | 35.1 | 32.9 | > 83.7 | – | > 100 | > 100 | 30.3 | 6.08 | 1.98 | 17.5 | 3.23 | 6.86 | 7.19 | 5.31 | 16.2 | 5.47 | 3.99 | –
CCOC(=O)NC/C=C/COC1CCCCO1 (stereo not given) | > 100 | > 100 | > 100 | – | – | – | > 100 | > 100 | > 100 | – | – | – | – | – | – | – | – | – | – | –
Nc1nc(Cl)cc(NCC(O)CO)n1 (stereo not given) | > 100 | > 100 | > 100 | > 100 | > 100 | > 100 | > 100 | > 100 | > 100 | – | – | – | – | – | – | – | – | – | – | –
O=C(OC1CCC2OOC1O2)c1ccc([N+](=O)[O-])cc1 (stereo not given) | > 100 | > 100 | > 100 | > 100 | > 100 | > 100 | > 100 | > 100 | > 100 | – | – | – | – | – | – | – | – | – | – | –
CCC(O)C1Cc2c(C)cc3c(c2O1)C(=O)c1ccccc1C3=O (stereo not given) | 62.7 | > 100 | > 100 | 86.8 | > 100 | > 100 | > 100 | > 100 | 68 | – | – | – | – | – | – | – | – | – | – | –
CCOC(=O)C(N=C(c1ccccc1)c1ccccc1)N(C(=O)OC(C)(C)C)C(=O)OC(C)(C)C (stereo not given) | > 100 | > 100 | > 100 | > 100 | > 100 | > 100 | > 100 | > 100 | > 100 | – | – | – | – | – | – | – | – | – | – | –
CCOC(=O)Nc1nc2ccc(Br)cc2s1 | > 50 | > 50 | > 50 | > 50 | > 50 | – | > 50 | > 50 | > 50 | > 50 | > 50 | > 50 | > 50 | > 50 | > 50 | > 50 | > 50 | > 50 | > 50 | –
Cc1cc(Nc2ncc3c(n2)N(C)C(=O)N(c2cc(NC(=O)c4cccc(C(F)(F)F)c4)ccc2C)C3)n(C)n1 | > 46.4 | 0.0764 | > 31.6 | > 100 | > 31.6 | – | – | 0.15 | 18.6 | 0.0599 | 0.0353 | 0.206 | 0.0245 | 0.0317 | 0.364 | 0.0733 | – | 0.02 | 0.641 | –
CCCCCCn1c(-c2ccc(C(=O)O/N=C(\N)c3ccc4ccccc4c3)cc2)nc(-c2ccccc2)c1-c1ccccc1 | > 100 | > 93.2 | > 100 | > 83.7 | > 100 | > 100 | > 100 | > 100 | – | 7.63 | 2.55 | > 28.7 | 25.6 | 7.64 | 11.8 | 7.57 | > 100 | > 100 | – | 6.73
CCOC(=O)Cc1csc(Nc2ccc(OCC)cc2)n1 | > 100 | > 100 | > 100 | > 100 | > 100 | > 100 | > 100 | > 100 | > 100 | – | – | – | – | – | – | – | – | – | – | –
O=C(NCc1cccnc1)C1COc2cc(-c3cc(=O)c4ccccc4o3)ccc2O1 (stereo not given) | > 81.7 | > 68.7 | > 100 | > 69.8 | > 100 | > 100 | > 100 | > 28.7 | > 100 | – | – | – | – | – | – | – | – | – | – | –
CN1CCC2(CC1)NC(=O)c1c(c3ccc(Cl)c(Cl)c3n1C)C2C#N (stereo not given) | 24 | – | 26.2 | 25.3 | 25.7 | 41.1 | > 56 | 3.89 | 13.3 | 10.1 | 7.63 | 45.6 | – | 11.1 | 10 | 11.4 | 11.7 | 1.92 | 2.94 | 12.4
